Assay results: patent US9688676B2, “Tyrosine kinase inhibitors” (PRINCIPIA BIOPHARMA INC., priority 2015, dated 2017)

Key:
BTK [1] = biological target: T1, BTK (Homo sapiens (Human), UniProt Q06187); experiment: BTK enzymatic activity assay (Caliper-based kinase assay); type: biochemical; conditions: human recombinant BTK 0.5 nM, ATP 16 μM, 3 h room temperature
Procedure: A Caliper-based kinase assay (Caliper Life Sciences, Hopkinton, Mass.) was used to measure inhibition of BTK kinase activity of a compound of the present disclosure. […] The reaction was then terminated with EDTA, final concentration 20 mM and the phosphorylated reaction product was quantified on a Caliper Desktop Profiler (Caliper LabChip 3000). […] This value is presented as the IC50.

BTK [2] = biological target: T1, BTK; experiment: Determination of drug-kinase residence time (TR-FRET tracer competition, occupancy after washout); type: binding; conditions: 1.5 μM compound, 500 nM BTK; for % occupany at 1 h: 1 h of washout; for % occupany at 6 h: 6 h of washout; for % occupany at 24 h: 24 h of washout
Procedure: The experiment was conducted in a buffer consisting of 50 mM Hepes pH 7.5, 10 mM MgCl2, 0.01% Triton X-100, and 1 mM EGTA.
The mixture was then diluted 5-fold by addition of 40 μL of buffer. […] In order to probe for reversibility of the kinase-compound binding interaction, a competition solution containing both a high affinity fluorescent tracer and an antibody coupled to Europium was prepared. […] The competition solution also contained 80 nM of an Anti-polyhistidine antibody coupled to Europium (Invitrogen Cat. #PV5596) which is designed to bind the polyhistidine purification tag in BTK.
It is to be expected that covalent and slow dissociating inhibitors will block binding of the tracer while rapidly dissociating non-covalent inhibitors will not. […] Data were plotted at percentage of signal obtained in the absence of competitor compound. The background signal was obtained by omission of BTK from the reaction. […] If the compound is a reversible covalent inhibitor, the tracer will bind the target as the compound dissociates from the target.

T1 sequence (Q06187 whole entry): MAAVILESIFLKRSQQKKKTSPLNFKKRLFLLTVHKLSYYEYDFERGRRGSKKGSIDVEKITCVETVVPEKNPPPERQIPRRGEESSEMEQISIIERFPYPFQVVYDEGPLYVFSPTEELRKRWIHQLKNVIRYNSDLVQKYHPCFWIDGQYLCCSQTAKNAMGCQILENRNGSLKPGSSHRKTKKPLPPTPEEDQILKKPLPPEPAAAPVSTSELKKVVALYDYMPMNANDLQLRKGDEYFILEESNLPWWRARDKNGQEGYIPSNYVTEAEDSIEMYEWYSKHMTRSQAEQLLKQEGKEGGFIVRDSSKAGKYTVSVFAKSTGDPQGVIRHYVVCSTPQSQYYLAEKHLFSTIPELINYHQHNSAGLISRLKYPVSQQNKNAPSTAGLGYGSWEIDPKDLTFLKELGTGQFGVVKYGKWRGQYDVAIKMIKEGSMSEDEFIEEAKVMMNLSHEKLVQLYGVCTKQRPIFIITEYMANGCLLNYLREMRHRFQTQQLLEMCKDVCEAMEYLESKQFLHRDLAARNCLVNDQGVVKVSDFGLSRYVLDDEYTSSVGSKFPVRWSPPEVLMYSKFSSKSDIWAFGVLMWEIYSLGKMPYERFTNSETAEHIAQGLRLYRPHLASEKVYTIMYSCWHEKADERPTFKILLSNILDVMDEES

## CN1CCC(C(C)(C)C=C(C#N)C(=O)N2CCC[C@@H](n3c(=O)n(-c4ccc(Oc5ccccc5)cc4)c4c(N)nccc43)C2)CC1 [Compound 7, (R)-2-(3-(4-amino-2-oxo-3-(4-phenoxyphenyl)-2,3-dihydro-1H-imidazo[4,5-c]pyridin-1-yl)piperidine-1-carbonyl)-4-methyl-4-(1-methylpiperidin-4-yl)pent-2-enenitrile]
BTK [1]
  IC50: 1.8 nM
BTK [2]
  % occupany at 1 h: 61.932%
  % occupany at 6 h: −1.3946%
  % occupany at 24 h: −12.344%

## CC(C)(C)C=C(C#N)C(=O)N1CCC[C@H]1Cn1c(=O)n(-c2ccc(Oc3ccccc3)cc2)c2c(N)nccc21 [Compound 12, (S)-2-(2-((4-amino-2-oxo-3-(4-phenoxyphenyl)-2,3-dihydro-1H-imidazo[4,5-c]pyridin-1-yl)methyl)pyrrolidine-1-carbonyl)-4,4-dimethylpent-2-enenitrile]
BTK [1]
  IC50: 6.6 nM
BTK [2]
  % occupany at 1 h: 95.906%
  % occupany at 6 h: 96.44%
  % occupany at 24 h: 90.847%

## CC(C)(C=C(C#N)C(=O)N1CCC[C@H]1Cn1c(=O)n(-c2ccc(Oc3ccccc3)cc2)c2c(N)nccc21)N1CCOCC1 [Compound 14, (S)-2-(2-((4-amino-2-oxo-3-(4-phenoxyphenyl)-2,3-dihydro-1H-imidazo[4,5-c]pyridin-1-yl)methyl)pyrrolidine-1-carbonyl)-4-methyl-4-morpholinopent-2-enenitrile]
BTK [1]
  IC50: 17.2 nM
BTK [2]
  % occupany at 1 h: 91.481%
  % occupany at 6 h: 76.396%
  % occupany at 24 h: 22.922%

## N#CC(=CC1CCC1)C(=O)N1CCC[C@@H](n2c(=O)n(-c3ccc(Oc4ccccc4)cc3)c3c(N)nccc32)C1 [Compound 8, (R)-2-(3-(4-amino-2-oxo-3-(4-phenoxyphenyl)-2,3-dihydro-1H-imidazo[4,5-c]pyridin-1-yl)piperidine-1-carbonyl)-3-cyclobutylacrylonitrile]
BTK [1]
  IC50: 23.9 nM
BTK [2]
  % occupany at 1 h: 93.335%
  % occupany at 6 h: 89.195%
  % occupany at 24 h: 80.873%

## COC(=O)N1CCN(C(C)(C)C=C(C#N)C(=O)N2CCC[C@H]2Cn2c(=O)n(-c3ccc(Oc4ccccc4)cc3)c3c(N)nccc32)CC1 [Compound 15, (S)-methyl 4-(5-(2-((4-amino-2-oxo-3-(4-phenoxyphenyl)-2,3-dihydro-1H-imidazo[4,5-c]pyridin-1-yl)methyl)pyrrolidin-1-yl)-4-cyano-2-methyl-5-oxopent-3-en-2-yl)piperazine-1-carboxylate]
BTK [1]
  IC50: 72.3 nM
BTK [2]
  % occupany at 1 h: 91.927%
  % occupany at 6 h: 85.356%
  % occupany at 24 h: 50.188%

## COCCN1CCN(C(C)(C)C=C(C#N)C(=O)N2CCC[C@@H](n3c(=O)n(-c4ccc(Oc5ccccc5)cc4)c4c(N)nccc43)C2)CC1 [Compound 9, (R)-2-(3-(4-amino-2-oxo-3-(4-phenoxyphenyl)-2,3-dihydro-1H-imidazo[4,5-c]pyridin-1-yl)piperidine-1-carbonyl)-4-(4-(2-methoxyethyl)piperazin-1-yl)-4-methylpent-2-enenitrile]
BTK [1]
  IC50: 7.8 nM
BTK [2]
  % occupany at 1 h: 93.363%
  % occupany at 6 h: 70.733%
  % occupany at 24 h: 31.4%

## CN1CCN(C(C)(C)C=C(C#N)C(=O)N2CCC[C@@H](n3c(=O)n(-c4ccc(Oc5ccccc5)cc4)c4c(N)nccc43)C2)CC1=O [Compound 18, (R)-2-(3-(4-amino-2-oxo-3-(4-phenoxyphenyl)-2,3-dihydro-1H-imidazo[4,5-c]pyridin-1-yl)piperidine-1-carbonyl)-4-methyl-4-(4-methyl-3-oxopiperazin-1-yl)pent-2-enenitrile]
BTK [1]
  IC50: 3.7 nM
BTK [2]
  % occupany at 1 h: 93.065%
  % occupany at 6 h: 73.513%
  % occupany at 24 h: 31.704%

## COC(=O)N1CCN(C(C)(C)C=C(C#N)C(=O)N2CCC[C@@H](n3c(=O)n(-c4ccc(Oc5ccccc5)cc4)c4c(N)nccc43)C2)CC1 [Compound 10, (R)-methyl 4-(5-(3-(4-amino-2-oxo-3-(4-phenoxyphenyl)-2,3-dihydro-1H-imidazo[4,5-c]pyridin-1-yl)piperidin-1-yl)-4-cyano-2-methyl-5-oxopent-3-en-2-yl)piperazine-1-carboxylate]
BTK [1]
  IC50: 7 nM
BTK [2]
  % occupany at 1 h: 94.392%
  % occupany at 6 h: 77.985%
  % occupany at 24 h: 49.145%

## CC1(C=C(C#N)C(=O)N2CCC[C@@H](n3c(=O)n(-c4ccc(Oc5ccccc5)cc4)c4c(N)nccc43)C2)CCC1 [Compound 3, (R)-2-(3-(4-amino-2-oxo-3-(4-phenoxyphenyl)-2,3-dihydro-1H-imidazo[4,5-c]pyridin-1-yl)piperidine-1-carbonyl)-3-(1-methylcyclobutyl)acrylonitrile]
BTK [1]
  IC50: 21.6 nM
BTK [2]
  % occupany at 1 h: 65.626%
  % occupany at 6 h: 58.519%
  % occupany at 24 h: 46.073%

## CC(C)(C=C(C#N)C(=O)N1CCC[C@@H](n2c(=O)n(-c3ccc(Oc4ccccc4)cc3)c3c(N)nccc32)C1)N1CCN(CC(F)(F)F)CC1 [Compound 6, (R)-2-(3-(4-amino-2-oxo-3-(4-phenoxyphenyl)-2,3-dihydro-1H-imidazo[4,5-c]pyridin-1-yl)piperidine-1-carbonyl)-4-methyl-4-(4-(2,2,2-trifluoroethyl)piperazin-1-yl)pent-2-enenitrile]
BTK [1]
  IC50: 5.9 nM
BTK [2]
  % occupany at 1 h: 94.404%
  % occupany at 6 h: 86.64%
  % occupany at 24 h: 67.505%

## N#CC(=CC1CCOCC1)C(=O)N1CCC[C@@H](n2c(=O)n(-c3ccc(Oc4ccccc4)cc3)c3c(N)nccc32)C1 [Compound 2, (R)-2-(3-(4-amino-2-oxo-3-(4-phenoxyphenyl)-2,3-dihydro-1H-imidazo[4,5-c]pyridin-1-yl)piperidine-1-carbonyl)-3-(tetrahydro-2H-pyran-4-yl)acrylonitrile]
BTK [1]
  IC50: 9.1 nM
BTK [2]
  % occupany at 1 h: 93.602%
  % occupany at 6 h: 85.49%
  % occupany at 24 h: 65.826%

## CC(C)(C=C(C#N)C(=O)N1CCC[C@H]1Cn1c(=O)n(-c2ccc(Oc3ccccc3)cc2)c2c(N)nccc21)N1CCN(C2COC2)CC1 [Compound 13, (S)-2-(2-((4-amino-2-oxo-3-(4-phenoxyphenyl)-2,3-dihydro-1H-imidazo[4,5-c]pyridin-1-yl)methyl)pyrrolidine-1-carbonyl)-4-methyl-4-(4-(oxetan-3-yl)piperazin-1-yl)pent-2-enenitrile]
BTK [1]
  IC50: 21.1 nM
BTK [2]
  % occupany at 1 h: 91.54%
  % occupany at 6 h: 83.963%
  % occupany at 24 h: 49.152%

## CC(C)(C=C(C#N)C(=O)N1CCC[C@@H](n2c(=O)n(-c3ccc(Oc4ccccc4)cc3)c3c(N)nccc32)C1)N1CCOCC1 [Compound 4, (R)-2-(3-(4-amino-2-oxo-3-(4-phenoxyphenyl)-2,3-dihydro-1H-imidazo[4,5-c]pyridin-1-yl)piperidine-1-carbonyl)-4-methyl-4-morpholinopent-2-enenitrile]
BTK [1]
  IC50: 7.8 nM
BTK [2]
  % occupany at 1 h: 90.005%
  % occupany at 6 h: 66.344%
  % occupany at 24 h: 18.2%

## N#CC(=CC1CC1(F)F)C(=O)N1CCC[C@@H](n2c(=O)n(-c3ccc(Oc4ccccc4)cc3)c3c(N)nccc32)C1 (stereo partly drawn) [Compound 52, (R)-2-(3-(4-amino-2-oxo-3-(4-phenoxyphenyl)-2,3-dihydro-1H-imidazo[4,5-c]pyridin-1-yl)piperidine-1-carbonyl)-3-(2,2-difluorocyclopropyl)acrylonitrile]
BTK [1]
  IC50: 12 nM

## CC(C)(C=C(C#N)C(=O)N1CCC[C@@H](n2c(=O)n(-c3ccc(Oc4ccccc4F)cc3)c3c(N)nccc32)C1)N1CCN(C2COC2)CC1 [Compound 38, (R)-2-(3-(4-amino-3-(4-(2-fluorophenoxy)phenyl)-2-oxo-2,3-dihydro-1H-imidazo[4,5-c]pyridin-1-yl)piperidine-1-carbonyl)-4-methyl-4-(4-(oxetan-3-yl)piperazin-1-yl)pent-2-enenitrile]
BTK [1]
  IC50: 5.7 nM

## COC[C@H]1CCCN1C(C)(C)C=C(C#N)C(=O)N1CCC[C@@H](n2c(=O)n(-c3ccc(Oc4ccccc4)cc3)c3c(N)nccc32)C1 [Compound 62, 2-((R)-3-(4-amino-2-oxo-3-(4-phenoxyphenyl)-2,3-dihydro-1H-imidazo[4,5-c]pyridin-1-yl)piperidine-1-carbonyl)-4-((R)-2-(methoxymethyl)pyrrolidin-1-yl)-4-methylpent-2-enenitrile]
BTK [1]
  IC50: 5.9 nM

## N#CC(=CC(CCO)CCO)C(=O)N1CCC[C@@H](n2c(=O)n(-c3ccc(Oc4ccccc4)cc3)c3c(N)nccc32)C1 [Compound 11, (R)-2-(3-(4-amino-2-oxo-3-(4-phenoxyphenyl)-2,3-dihydro-1H-imidazo[4,5-c]pyridin-1-yl)piperidine-1-carbonyl)-6-hydroxy-4-(2-hydroxyethyl)hex-2-enenitrile]
BTK [1]
  IC50: 78.6 nM

## CN1CCN(c2ccnc(C(C)(C)C=C(C#N)C(=O)N3CCC[C@@H](n4c(=O)n(-c5ccc(Oc6ccccc6)cc5)c5c(N)nccc54)C3)n2)CC1 [Compound 56, (R)-2-(3-(4-amino-2-oxo-3-(4-phenoxyphenyl)-2,3-dihydro-1H-imidazo[4,5-c]pyridin-1-yl)piperidine-1-carbonyl)-4-methyl-4-(4-(4-methylpiperazin-1-yl)pyrimidin-2-yl)pent-2-enenitrile]
BTK [1]
  IC50: 7.8 nM
